According to patent US5488134A, “Preparation of compounds of lignan series” (Shionogi & Co., Ltd., priority 1993, dated 1996):

Tests used:
[1] = test system: LDL; assay: Inhibitory Action against Oxidative Modification of LDL (Cu2+-induced, TBA reactive substances); assay type: biochemical, New Zealand White rabbits; conditions: rabbit LDL 0.2 mg protein/ml, cupric sulfate 0.5 μM Cu2+, 37° C., 24 hours, read-out: LDL-Oxidation Inhibiting IC50
Protocol: Inhibitory Action against Oxidative Modification of LDL
Experiments were conducted as follows according to the method of Kita, et al. described in proceedings of the National Academy of Sciences, USA, volume 84, pages 5928 (1987).
First, LDL was separated from the blood of New Zealand White rabbits fed with a feed containing 0.5% of cholesterol for three weeks and dissolved in phosphate-buffered physiological saline (final LDL concentration: 0.2 mg protein/ml). To this was added an ethanolic solution of each test compound, then cupric sulfate was added thereto (final Cu^2+ concentration: 0.5 μM) and the mixture was incubated at 37° C. for 24 hours.
The amount of lipid peroxides in each of the incubated solutions was measured as thiobarbituric acid reacting substances (TBA reactive substances) and, from the regression line of the inhibitory rate for oxidative modification of LDL and the concentration of the compound, the 50% inhibiting concentration (IC50) was calculated. Quantitative determination of the TBA reactive substances was conducted by measuring the TBA reactive substances in the supernatant (prepared by removing protein from the incubated solution) by means of TBA method.

[2] = Cholesterol-lowering Action in cholesterol-fed mice; assay type: in vivo; conditions: male ICR mice, feed with 1% cholesterol and 0.5% sodium cholate, 0.12% test compound in feed, seven days; for (VLDL + LDL) Cholesterol Lowering Rate: total minus HDL cholesterol; for Total Cholesterol Lowering Rate: serum
Protocol: Cholesterol-lowering Action
Male ICR mice (body weight: 30-40 grams) were freely fed for seven days with a feed containing 1% of cholesterol and 0.5% of sodium cholate to which 0.12% of the test compound was added (no such a compound was added for the control group), then blood was collected from the mice and the total cholesterol in serum was measured by the method of Allain described in Clinical Chemistry, volume 20, page 470 (1974).
Total amount of VLDL cholesterol and LDL cholesterol was calculated by subtracting the amount of HDL cholesterol from the amount of total cholesterol. The amount of the HDL cholesterol was measured by the method of Ash and Hentschel described in Clinical Chemistry, volume 24, page 2180 (1978).
Cholesterol lowering action of the test compound was evaluated from the cholesterol lowering rate calculated from the following expressions. [formula]

COC(=O)c1c(C(=O)c2ccc(C(F)(F)F)cc2)c(O)c2cc(OC)c(OC)c(OC)c2c1-c1ccc(OC)c(OC)c1 [Example 1, 1-(3,4-Dimethoxyphenyl)-4-hydroxy-2-(methoxycarbonyl)-3-[4-(trifluoromethyl)benzoyl]-6,7,8-trimethoxynaphthalene]
IC50 [1]: 1520 nM
(VLDL + LDL) Cholesterol Lowering Rate [2]: 61%
Total Cholesterol Lowering Rate [2]: 22%

COC(=O)c1c(C(=O)c2ccc(Cl)cc2)c(O)c2cc(OC)c(OC)c(OC)c2c1-c1ccc(OC)c(OC)c1 [Example 2, 3-(4-Chlorobenzoyl)-1-(3,4-dimethoxyphenyl)-4-hydroxy-2-(methoxycarbonyl)-6,7,8-trimethoxynaphthalene]
IC50 [1]: 1420 nM
(VLDL + LDL) Cholesterol Lowering Rate [2]: 74%
Total Cholesterol Lowering Rate [2]: 28%
